US8501953B2, “PKM2 modulators for use in the treatment of cancer” (Agios Pharmaceuticals, Inc, priority 2009, dated 2013)

Target: PKM2 (Homo sapiens, UniProt P14618)
Experiment: PKM2 Assay (activation; LDH-coupled, NADH absorbance at 340 nm)
Type: biochemical
Conditions: PKM2 50 ng/well, ADP 0.7 mM, PEP 0.15 mM, no FBP in Reaction Mix
Description: • PKM2 stock enzyme solution was diluted in Reaction Buffer • 2 μL of compound was added into each well first, and then 180 μL of the Reaction Mix was added. • Reaction mixture with compound (without ADP) were incubated for 30 minutes at 4° C. • Plates were re-equilibrated to room temperature prior to adding 20 μL ADP to initiate the reaction. • Reaction progress was measured as changes in absorbance at 340 nm wavelength at room temperature (25° C.) Reaction Mix: PKM2 (50 ng/well), ADP (0.7 mM), PEP (0.15 mM), NADH (180 μM), LDH (2 units) in Reaction Buffer Reaction Buffer: 100 mM KCl, 50 mM Tris pH 7.5, 5 mM MgCl2, 1 mM DTT, 0.03% BSA.

Chain of PKM2 (P14618 whole entry): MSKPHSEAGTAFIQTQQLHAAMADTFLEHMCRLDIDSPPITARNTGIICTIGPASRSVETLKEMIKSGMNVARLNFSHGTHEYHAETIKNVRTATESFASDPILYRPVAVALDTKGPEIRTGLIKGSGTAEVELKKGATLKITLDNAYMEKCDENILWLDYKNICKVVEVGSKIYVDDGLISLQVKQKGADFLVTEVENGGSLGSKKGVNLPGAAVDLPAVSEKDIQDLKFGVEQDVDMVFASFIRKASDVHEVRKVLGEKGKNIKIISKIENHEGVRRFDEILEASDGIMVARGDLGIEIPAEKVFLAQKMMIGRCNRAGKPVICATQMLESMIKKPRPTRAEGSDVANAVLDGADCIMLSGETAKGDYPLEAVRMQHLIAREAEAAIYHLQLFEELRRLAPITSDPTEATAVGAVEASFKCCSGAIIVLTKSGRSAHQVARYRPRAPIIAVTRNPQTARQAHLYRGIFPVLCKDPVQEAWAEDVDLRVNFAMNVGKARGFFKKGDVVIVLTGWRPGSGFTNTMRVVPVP

AC50	Compound
10 to 50 µM	Cn1c(=O)sc2cc(NS(=O)(=O)c3cccs3)ccc21
1 to 10 µM	COc1ccc(Cl)cc1NS(=O)(=O)c1ccc2c(c1)oc(=O)n2C
1 to 10 µM	Cn1c(=O)oc2cc(S(=O)(=O)Nc3c(F)cccc3F)ccc21
1 to 10 µM	Cn1c(=O)oc2cc(S(=O)(=O)Nc3ccc(F)cc3)ccc21
1 to 10 µM	COc1ccc(Cl)cc1S(=O)(=O)Nc1cc2[nH]c(=O)oc2cc1C
1 to 10 µM	Cc1cc2c(cc1S(=O)(=O)Nc1ccccc1Cl)oc(=O)n2C
1 to 10 µM	CCn1c(=O)oc2cc(S(=O)(=O)Nc3ccc(F)cc3)ccc21
10 to 50 µM	Cc1cc2oc(=O)n(C)c2cc1NS(=O)(=O)c1cc(Cl)cc(Cl)c1
< 1 µM	Cc1cc(C)cc(NS(=O)(=O)c2ccc3c(c2)oc(=O)n3C)c1
10 to 50 µM	COc1ccc(S(=O)(=O)Nc2cc3c(cc2Cl)oc(=O)n3C)cc1OC
> 100 µM	COc1ccc(S(=O)(=O)Nc2cc3[nH]c(=O)oc3cc2Cl)cc1OC
1 to 10 µM	CCn1c(=O)oc2cc(S(=O)(=O)Nc3cc(Cl)ccc3OC)c(C)cc21
10 to 50 µM	COc1cccc(S(=O)(=O)Nc2cc3c(cc2C)oc(=O)n3C)c1
< 1 µM	Cn1c(=O)sc2cc(S(=O)(=O)Nc3ccc(F)cc3)ccc21
1 to 10 µM	Cn1c(=O)oc2cc(Cl)c(S(=O)(=O)Nc3ccccc3Cl)cc21
> 100 µM	Cc1cc2oc(=O)n(C)c2cc1NS(=O)(=O)c1ccc(F)c(F)c1
1 to 10 µM	Cc1cc2oc(=O)n(C)c2cc1S(=O)(=O)Nc1ccccc1Cl
10 to 50 µM	COc1ccc(Cl)cc1S(=O)(=O)Nc1cc2c(cc1F)oc(=O)n2C
< 1 µM	Cc1cc(C)cc(NS(=O)(=O)c2cc3c(cc2C)oc(=O)n3C)c1
10 to 50 µM	Cc1cc2oc(=O)n(C)c2cc1NS(=O)(=O)c1ccccc1Cl
1 to 10 µM	O=c1[nH]c2cc(NS(=O)(=O)c3cccs3)c(Cl)cc2o1
< 1 µM	Cc1cc2oc(=O)n(C)c2cc1S(=O)(=O)Nc1ccc(F)cc1
> 100 µM	Cc1cc2oc(=O)n(C)c2cc1NS(=O)(=O)c1c(F)cccc1F
> 100 µM	CCn1c(=O)oc2cc(Cl)c(S(=O)(=O)Nc3ccccc3Cl)cc21
10 to 50 µM	O=c1[nH]c2cc(NS(=O)(=O)c3cccs3)ccc2o1

AC50	Compound
1 to 10 µM	Cn1c(=O)oc2cc(F)c(S(=O)(=O)Nc3ccc(F)cc3)cc21
< 1 µM	Cn1c(=O)oc2cc(S(=O)(=O)Nc3ccc(F)c(Cl)c3)ccc21
1 to 10 µM	Cc1ccc(NS(=O)(=O)c2ccc3c(c2)oc(=O)n3C)cc1F
1 to 10 µM	Cn1c(=O)oc2cc(S(=O)(=O)Nc3ccc(Cl)c(Cl)c3)ccc21
1 to 10 µM	Cc1cc2c(cc1S(=O)(=O)N1CCN(S(=O)(=O)c3c(F)cccc3F)CC1)oc(=O)n2C
1 to 10 µM	Cc1ccc(COC(=O)N2CCN(S(=O)(=O)c3cc4oc(=O)n(C)c4cc3C)CC2)cc1
> 100 µM	Cc1cc2c(cc1S(=O)(=O)N1CCN(C(=O)COc3ccccc3)CC1)oc(=O)n2C
10 to 50 µM	Cc1cc2c(cc1S(=O)(=O)N1CCN(C(=O)COc3ccc(-n4cnnn4)cc3)CC1)oc(=O)n2C
< 1 µM	Cc1cc2c(cc1S(=O)(=O)N1CCN(S(=O)(=O)c3ccc4c(c3)OCCO4)CC1)oc(=O)n2C
< 1 µM	Cn1c(=O)oc2cc(S(=O)(=O)N3CCN(S(=O)(=O)c4ccc5c(c4)OCCO5)CC3)ccc21
< 1 µM	COc1cc(NS(=O)(=O)c2ccc3c(c2)oc(=O)n3C)cc(OC)c1
< 1 µM	Cn1c(=O)oc2cc(S(=O)(=O)Nc3ccc4c(c3)OCO4)ccc21
< 1 µM	Cc1ccc(NS(=O)(=O)c2ccc3c(c2)oc(=O)n3C)cc1C
< 1 µM	Cc1cc(NS(=O)(=O)c2ccc3c(c2)oc(=O)n3C)ccc1Cl
1 to 10 µM	Cn1c(=O)oc2cc(S(=O)(=O)Nc3cccc(C(F)(F)F)c3)ccc21
< 1 µM	Cn1c(=O)oc2cc(S(=O)(=O)Nc3cccc(Cl)c3)ccc21
< 1 µM	Cn1c(=O)oc2cc(S(=O)(=O)Nc3ccc(F)c(F)c3)ccc21
1 to 10 µM	Cn1c(=O)oc2cc(S(=O)(=O)Nc3ccc(OC(F)(F)F)c(Br)c3)ccc21
1 to 10 µM	Cn1c(=O)oc2cc(S(=O)(=O)Nc3ccc(OC(F)(F)F)c(Cl)c3)ccc21
< 1 µM	Cn1c(=O)oc2cc(S(=O)(=O)Nc3cc(F)cc(Cl)c3)ccc21
< 1 µM	Cn1c(=O)oc2cc(S(=O)(=O)Nc3cc(Cl)cc(Cl)c3)ccc21
< 1 µM	CCc1cccc(NS(=O)(=O)c2ccc3c(c2)oc(=O)n3C)c1
1 to 10 µM	COc1ccc(C)cc1S(=O)(=O)Nc1ccc(NS(=O)(=O)c2ccc3c(c2)oc(=O)n3C)cc1
1 to 10 µM	Cn1c(=O)oc2cc(S(=O)(=O)NC3CCCCC3)ccc21
1 to 10 µM	Cn1c(=O)oc2cc(S(=O)(=O)Nc3cccc4ccccc34)ccc21

AC50	Compound
1 to 10 µM	Cn1c(=O)oc2cc(S(=O)(=O)Nc3ccc4ccccc4c3)ccc21
1 to 10 µM	Cn1c(=O)oc2cc(S(=O)(=O)Nc3ccc4ncccc4c3)ccc21
10 to 50 µM	Cn1c(=O)oc2cc(S(=O)(=O)Nc3cccc4ncccc34)ccc21
< 1 µM	Cn1c(=O)oc2cc(S(=O)(=O)Nc3ccc(F)c(C(F)(F)F)c3)ccc21
1 to 10 µM	Cn1c(=O)oc2cc(S(=O)(=O)Nc3ccc4ncn(S(=O)(=O)c5cccc6c5oc(=O)n6C)c4c3)ccc21
< 1 µM	COCCn1c(=O)oc2cc(S(=O)(=O)Nc3cccc(Cl)c3)ccc21
< 1 µM	COCCn1c(=O)oc2cc(S(=O)(=O)Nc3ccc(F)c(Cl)c3)ccc21
< 1 µM	COCCn1c(=O)oc2cc(S(=O)(=O)Nc3ccc(F)c(C)c3)ccc21
< 1 µM	COCCn1c(=O)oc2cc(S(=O)(=O)Nc3cccc(Cl)c3)cc(C)c21
< 1 µM	COCCn1c(=O)oc2cc(S(=O)(=O)Nc3ccc(F)c(Cl)c3)cc(C)c21
< 1 µM	Cc1cc(NS(=O)(=O)c2cc(C)c3c(c2)oc(=O)n3C)ccc1F
< 1 µM	Cc1cc(S(=O)(=O)Nc2cccc(Cl)c2)cc2oc(=O)n(C)c12
< 1 µM	Cc1cc(S(=O)(=O)Nc2ccc(F)c(Cl)c2)cc2oc(=O)n(C)c12
< 1 µM	COCCn1c(=O)oc2cc(S(=O)(=O)Nc3ccc(F)c(C)c3)cc(C)c21
1 to 10 µM	Cc1cc(NS(=O)(=O)c2cc(C)c3c(c2)oc(=O)n3CCN2CCOCC2)ccc1F
< 1 µM	Cc1cc(S(=O)(=O)Nc2ccc(F)c(Cl)c2)cc2oc(=O)n(CCN(C)C)c12
1 to 10 µM	Cc1cc(NS(=O)(=O)c2cc(CN3CCCCC3)c3c(c2)oc(=O)n3C)ccc1F
1 to 10 µM	Cc1cc(NS(=O)(=O)c2cc(CN3CCOCC3)c3c(c2)oc(=O)n3C)ccc1F
> 100 µM	Cc1cc(NS(=O)(=O)c2cc(CN(C)C)c3c(c2)oc(=O)n3C)ccc1F
1 to 10 µM	Cn1c(=O)oc2cc(Cl)c(S(=O)(=O)Nc3ccccc3F)cc21
> 100 µM	Cn1c(=O)oc2cc(F)c(S(=O)(=O)Nc3c(F)cccc3F)cc21
1 to 10 µM	Cc1cc2oc(=O)n(C)c2cc1S(=O)(=O)N1CCN(c2ccc(C(F)(F)F)cn2)CC1
< 1 µM	Cc1cc(C)cc(NS(=O)(=O)c2ccc3oc(=O)n(C)c3c2)c1
1 to 10 µM	Cc1cc2oc(=O)n(C)c2cc1S(=O)(=O)N1CCCN(c2ccc(C(F)(F)F)cn2)CC1
< 1 µM	Cn1c(=O)oc2cc(F)c(S(=O)(=O)N3CCN(S(=O)(=O)c4ccc5c(c4)OCCO5)CC3)cc21

AC50	Compound
< 1 µM	COc1ccc(Cl)cc1S(=O)(=O)N1CCN(S(=O)(=O)c2cc3c(cc2F)oc(=O)n3C)CC1
< 1 µM	Cn1c(=O)oc2cc(F)c(S(=O)(=O)N3CCN(S(=O)(=O)c4c(F)cccc4F)CC3)cc21
> 100 µM	COc1ccc(Cl)cc1S(=O)(=O)Nc1ccc(NS(=O)(=O)c2cc3c(cc2C)oc(=O)n3C)cc1
1 to 10 µM	Cc1cc2oc(=O)n(C)c2cc1S(=O)(=O)Nc1cc(F)cc(F)c1
< 1 µM	Cc1ccc(NS(=O)(=O)c2cc3c(cc2C)oc(=O)n3C)cc1F
1 to 10 µM	Cc1cc2oc(=O)n(C)c2cc1S(=O)(=O)Nc1ccc(OC(F)(F)F)c(Cl)c1
< 1 µM	Cc1ccc(NS(=O)(=O)c2cc3c(cc2C)oc(=O)n3C)cc1C
< 1 µM	Cc1cc2oc(=O)n(C)c2cc1S(=O)(=O)Nc1ccc2c(c1)OCO2
1 to 10 µM	COc1cc(NS(=O)(=O)c2cc3c(cc2C)oc(=O)n3C)cc(OC)c1
< 1 µM	Cc1cc(C)cc(NS(=O)(=O)c2cc3c(cc2F)oc(=O)n3C)c1
> 100 µM	CC(=O)Nc1ccc(NS(=O)(=O)c2cc3c(cc2C)oc(=O)n3C)cc1
< 1 µM	Cc1cc(NS(=O)(=O)c2cc3c(cc2C)oc(=O)n3C)ccc1Cl
< 1 µM	Cc1cc2oc(=O)n(C)c2cc1S(=O)(=O)Nc1cccc(Cl)c1
1 to 10 µM	Cc1cc2oc(=O)n(C)c2cc1S(=O)(=O)Nc1ccc(Cl)c(C(F)(F)F)c1
1 to 10 µM	Cc1cc2oc(=O)n(C)c2cc1S(=O)(=O)Nc1ccc(Cl)c(Cl)c1
1 to 10 µM	Cc1cc2oc(=O)n(C)c2cc1S(=O)(=O)Nc1ccc(Cl)c(F)c1
< 1 µM	Cc1cc2oc(=O)n(C)c2cc1S(=O)(=O)Nc1ccc(F)c(Cl)c1
1 to 10 µM	Cc1cc2oc(=O)n(C)c2cc1S(=O)(=O)Nc1cc(F)cc(Cl)c1
< 1 µM	CCc1cccc(NS(=O)(=O)c2cc3c(cc2C)oc(=O)n3C)c1
1 to 10 µM	COCCn1c(=O)oc2cc(C)c(S(=O)(=O)Nc3ccc(F)c(C)c3)cc21
> 100 µM	Cc1cc2oc(=O)n(C)c2cc1S(=O)(=O)N1CCN(C(=O)Cc2ccc(C(F)(F)F)cc2)CC1
1 to 10 µM	COCCn1c(=O)oc2cc(C)c(S(=O)(=O)Nc3ccc(F)c(Cl)c3)cc21
> 100 µM	COc1ccc(Cl)cc1S(=O)(=O)Nc1cc2c(cc1C)oc(=O)n2C [drawing 27]
< 1 µM	COc1ccc(Cl)cc1S(=O)(=O)Nc1cc2c(cc1C)oc(=O)n2C [drawing 47]
